Legend:
[1] = test system: MCF-7 (human breast cancer cell line); assay: MTT anti-proliferative assay, MCF-7; assay type: cell-based; details: means ± SD, n = 3; for IC50: Homo sapiens, MCF7, 48 h incubation
Source text: (§1) The anti-proliferative activities against five human cancer cell lines, including HCT116 (human colorectal cancer cell line), MCF-7 (human breast cancer cell line), SW620 (human colorectal cancer cell line), BEL7402 (human hepatocellular carcinoma cell line), and HepG2 (human hepatocellular carcinoma cell line) were established for all the target compounds using the MTT assay.
(§2) The propidium iodide (PI) and Annexin V-FITC apoptosis detection kit were purchased from Invitrogen (Eugene, OR, United States). 3-(4,5-Dimethylthiazol-2-yl)-2,5-diphenyl-2H-tetrazolium bromide (MTT) was purchased from Sigma-Aldrich Co. (St. Louis, MO, United States). All human cell lines were used in this study, colorectal cancer cell HCT116, colorectal cancer cell SW620, breast cancer cell MCF-7, liver hepatocellular carcinoma cell BEL7402, liver hepatocellular carcinoma HepG2 and normal liver cell L02 were initially purchased from American Type Culture Collection (ATCC, Manassas, VA, United States). RPMI-1640 media, Dulbecco’s modified Eagle’s medium (DMEM), and foetal bovine serum (FBS) were provided from Gibco Company (Grand Island, NY, United States). Cell line MCF-7 and HepG2 were cultivated in DMEM containing 10% (v/v) heat-inactivated FBS, 100 units/ml penicillin and […] streptomycin (Grand Island, NY, United States). Cell lines HCT116, BEL7402, SW620, and L02 were cultivated in RPMI 1640 medium containing 10% (v/v) heat-inactivated FBS, 100 units/ml penicillin, and […] streptomycin. The cells were incubated at 37°C under a 5% CO2 and 90% relative humidity (RH) atmosphere.
(§3) Stock solutions were prepared by diluting target compounds in DMSO at concentrations (1.25, 2.5, 5, and 10 mM). The stock solution was then diluted (1.25, 2.5, 5, and 10 μM) with culture medium, and the concentration of DMSO was controlled not to exceed 0.1%.
(§4) Place the cells in a 96-well plate at an appropriate density to ensure exponential growth (1 × 10^4–1.2×10^4 cells per well) throughout the experiment, and then allow the cells to adhere for 24 h. The cells were then treated with continuous concentrations of each compound (1.25, 2.5, 5, and 10 μM) for 48 h. After 48 h of incubation, 15 μl of MTT solution was added to each well, and the final concentration was 2 mg/ml. Then incubate for another 4 h. After incubation, remove the MTT solution and add […] of DMSO to each well for staining. Shake vigorously for 10 min at room temperature to ensure complete dissolution. The optical density (OD) was read on a microplate reader (ELx 800, BioTek, Highland Park, Winooski, VT, United States) with a wavelength of 492 nm, and then the data was analyzed.

[2] = test system: BEL7402 (human hepatocellular carcinoma cell line); assay: MTT anti-proliferative assay, BEL7402; assay type: cell-based; details: means ± SD, n = 3; for IC50: Homo sapiens, Bel-7402, 48 h incubation
Source text: as §1, §2, §3, §4

[3] = test system: SW620 (human colorectal cancer cell line); assay: MTT anti-proliferative assay, SW620; assay type: cell-based; details: means ± SD, n = 3; for IC50: Homo sapiens, SW-620, 48 h incubation
Source text: as §1, §2, §3, §4

[4] = test system: HepG2 (human hepatocellular carcinoma cell line); assay: MTT anti-proliferative assay, HepG2; assay type: cell-based; details: means ± SD, n = 3; for IC50: Homo sapiens, HepG2, 48 h incubation
Source text: as §1, §2, §3, §4

[5] = test system: HCT116 (human colorectal cancer cell line); assay: MTT anti-proliferative assay, HCT116; assay type: cell-based; details: means ± SD, n = 3; for IC50: Homo sapiens, HCT-116, 48 h incubation
Source text: as §1, §2, §3, §4

Compound `COc1ccc(-c2nnc(COC(=O)[C@]34CCC(C)(C)C[C@H]3C3=CC[C@@H]5[C@@]6(C)CC[C@H](O)[C@@](C)(C=O)[C@@H]6CC[C@@]5(C)[C@]3(C)C[C@H]4O)o2)cc1` [Compound B4, (5-(4-methoxyphenyl)-1,3,4-oxadiazol-2-yl)methyl (4aR,5R,6aS,6bR,8aR,9S,10S,12aR,12bR,14bS)-9-formyl-5,10-dihydroxy-2,2,6a,6b,9,12a-hexamethyl-1,3,4,5,6,6a,6b,7,8,8a,9,10,11,12,12a,12b,13,14b-octadecahydropicene-4a (2H)-carboxylate] has an IC50 [1] greater than 10 µM, an IC50 [2] of 9.15 ± 2.21 µM and an IC50 [3] of 7.23 ± 1.56 µM. For the same compound, the IC50 [4] was 8.38 ± 2.22 µM, the IC50 [5] was 3.65 ± 1.06 µM and the melting point was 126 to 128 °C.
In the case of `CC1(C)CC[C@]2(C(=O)OCc3cc(-c4ccccc4)no3)[C@H](O)C[C@]3(C)C(=CC[C@@H]4[C@@]5(C)CC[C@H](O)[C@@](C)(C=O)[C@@H]5CC[C@]43C)[C@@H]2C1` [D, (3-phenylisoxazol-5-yl)methyl (4aR,5R,6aS,6bR,8aR,9S,10S,12aR,12bR,14bS)-9-formyl-5,10-dihydroxy-2,2,6a,6b,9,12a-hexamethyl-1,3,4,5,6,6a,6b,7,8,8a,9,10,11,12,12a,12b,13,14b-octadecahydropicene-4a (2H)-carboxylate], the “IC50 values MCF-7” value ([1]; 48 h incubation) is reported as “no strong activity”, the IC50 [1] is reported as greater than 10 µM and the “IC50 values BEL7402” value ([2]; 48 h incubation) is reported as “no strong activity”. The IC50 [2] was greater than 10 µM, the “IC50 values SW620” value ([3]; 48 h incubation) was “no strong activity” and the IC50 [3] was greater than 10 µM. The “IC50 values HepG2” value ([4]; 48 h incubation) was “no strong activity”, the IC50 [4] was greater than 10 µM and the “IC50 values HCT116” value ([5]; 48 h incubation) was “no strong activity”. The IC50 [5] was greater than 10 µM and the melting point was 176 to 178 °C.
`CC1(C)CC[C@]2(C(=O)OCc3cn(-c4ccc(Br)cc4)nn3)[C@H](O)C[C@]3(C)C(=CC[C@@H]4[C@@]5(C)CC[C@H](O)[C@@](C)(C=O)[C@@H]5CC[C@]43C)[C@@H]2C1` [Compound A5, (1-(4-bromophenyl)-1H-1,2,3-triazol-4-yl)methyl (4aR,5R,6aS,6bR,8aR,9S,10S,12aR,12bR,14bS)-9-formyl-5,10-dihydroxy-2,2,6a,6b,9,12a-hexamethyl-1,3,4,5,6,6a,6b,7,8,8a,9,10,11,12,12a,12b,13,14b-octadecahydropicene-4a (2H)-carboxylate] showed an IC50 [1] greater than 10 µM, an IC50 [2] greater than 10 µM and an IC50 [3] greater than 10 µM. The IC50 [4] was greater than 10 µM, the IC50 [5] was greater than 10 µM and the melting point was 190 to 192 °C.
For `COc1cc(-n2cc(COC(=O)[C@]34CCC(C)(C)C[C@H]3C3=CC[C@@H]5[C@@]6(C)CC[C@H](O)[C@@](C)(C=O)[C@@H]6CC[C@@]5(C)[C@]3(C)C[C@H]4O)nn2)cc(OC)c1OC` [Compound A8, (1-(3,4,5-trimethoxyphenyl)-1H-1,2,3-triazol-4-yl)methyl (4aR,5R,6aS,6bR,8aR,9S,10S,12aR,12bR,14bS)-9-formyl-5,10-dihydroxy 2,2,6a,6b,9,12a-hexamethyl-1,3,4,5,6,6a,6b,7,8,8a,9,10,11,12,12a,12b,13,14b octadecahydropicene-4a (2H)-carboxylate], the IC50 [1] was greater than 10 µM, the IC50 [2] was greater than 10 µM and the IC50 [3] was greater than 10 µM. The IC50 [4] was greater than 10 µM and the IC50 [5] was greater than 10 µM.
In the case of `CC1(C)CC[C@]2(C(=O)O)[C@H](O)C[C@]3(C)C(=CC[C@@H]4[C@@]5(C)CC[C@H](O)[C@@](C)(C=O)[C@@H]5CC[C@]43C)[C@@H]2C1` [QA, quillaic acid], the IC50 [1] is reported as greater than 10 µM, the IC50 [2] is reported as greater than 10 µM and the IC50 [3] is reported as greater than 10 µM. It also gave an IC50 [4] greater than 10 µM and an IC50 [5] greater than 10 µM.
Compound `COc1cc(-n2cnn(CCOC(=O)[C@]34CCC(C)(C)C[C@H]3C3=CC[C@@H]5[C@@]6(C)CC[C@H](O)[C@@](C)(C=O)[C@@H]6CC[C@@]5(C)[C@]3(C)C[C@H]4O)c2=O)cc(OC)c1OC` [Compound C6, 2-(5-oxo-4-(3,4,5-trimethoxyphenyl)-4,5-dihydro-1H-1,2,4-triazol-1-yl)ethyl (4aR,5R,6aS,6bR,8aR,9S,10S,12aR,12bR,14bS)-9-formyl-5,10-dihydroxy-2,2,6a,6b,9,12a-hexamethyl-1,3,4,5,6,6a,6b,7,8,8a,9,10,11,12,12a,12b,13,14b-octadecahydropicene-4a (2H)-carboxylate] has an IC50 [1] greater than 10 µM, an IC50 [2] greater than 10 µM and an IC50 [3] of 7.35 ± 1.7 µM. For the same compound, the IC50 [4] was greater than 10 µM and the IC50 [5] was 5.6 ± 1.55 µM.
Work on `COc1cc(-c2nnc(COC(=O)[C@]34CCC(C)(C)C[C@H]3C3=CC[C@@H]5[C@@]6(C)CC[C@H](O)[C@@](C)(C=O)[C@@H]6CC[C@@]5(C)[C@]3(C)C[C@H]4O)o2)cc(OC)c1OC` [Compound B5, (5-(3,4,5-trimethoxyphenyl)-1,3,4-oxadiazol-2-yl)methyl (4aR,5R,6aS,6bR,8aR,9S,10S,12aR,12bR,14bS)-9-formyl-5,10-dihydroxy-2,2,6a,6b,9,12a-hexamethyl-1,3,4,5,6,6a,6b,7,8,8a,9,10,11,12,12a,12b,13,14b-octadecahydropicene-4a (2H)-carboxylate] yielded an IC50 [1] greater than 10 µM, an IC50 [2] of 7.36 ± 1.45 µM and an IC50 [3] greater than 10 µM. For the same compound, the IC50 [4] was 8.45 ± 2.15 µM, the IC50 [5] was 3.81 ± 1.23 µM and the melting point was 136 to 138 °C.
In the case of `CC1(C)CC[C@]2(C(=O)OCc3cn(-c4ccc(F)cc4)nn3)[C@H](O)C[C@]3(C)C(=CC[C@@H]4[C@@]5(C)CC[C@H](O)[C@@](C)(C=O)[C@@H]5CC[C@]43C)[C@@H]2C1` [Compound A2, (1-(4-fluorophenyl)-1H-1,2,3-triazol-4-yl)methyl (4aR,5R,6aS,6bR,8aR,9S,10S,12aR,12bR,14bS)-9-formyl-5,10-dihydroxy-2,2,6a,6b,9,12a-hexamethyl-1,3,4,5,6,6a,6b,7,8,8a,9,10,11,12,12a,12b,13,14b-octadecahydropicene-4a (2H)-carboxylate], the IC50 [1] is reported as greater than 10 µM, the IC50 [2] is reported as 3.18 ± 1.02 µM and the IC50 [3] is reported as 8.78 ± 1.77 µM. It also gave an IC50 [4] greater than 10 µM, an IC50 [5] of 3.04 ± 0.92 µM and a melting point of 171 to 172 °C.
`COc1ccc(-n2cc(COC(=O)[C@]34CCC(C)(C)C[C@H]3C3=CC[C@@H]5[C@@]6(C)CC[C@H](O)[C@@](C)(C=O)[C@@H]6CC[C@@]5(C)[C@]3(C)C[C@H]4O)nn2)cc1OC` [Compound A7, (1-(3,4-dimethoxyphenyl)-1H-1,2,3-triazol-4-yl)methyl (4aR,5R,6aS,6bR,8aR,9S,10S,12aR,12bR,14bS)-9-formyl-5,10-dihydroxy-2,2,6a,6b,9,12a-hexamethyl-1,3,4,5,6,6a,6b,7,8,8a,9,10,11,12,12a,12b,13,14b-octadecahydropicene-4a (2H)-carboxylate] showed an IC50 [1] greater than 10 µM, an IC50 [2] greater than 10 µM and an IC50 [3] greater than 10 µM. It also gave an IC50 [4] greater than 10 µM and an IC50 [5] greater than 10 µM.
For `CC1(C)CC[C@]2(C(=O)OCCn3ncn(-c4ccccc4)c3=O)[C@H](O)C[C@]3(C)C(=CC[C@@H]4[C@@]5(C)CC[C@H](O)[C@@](C)(C=O)[C@@H]5CC[C@]43C)[C@@H]2C1` [Compound C1, 2-(5-oxo-4-phenyl-4,5-dihydro-1H-1,2,4-triazol-1-yl)ethyl (4aR,5R,6aS,6bR,8aR,9S,10S,12aR,12bR,14bS)-9-formyl-5,10-dihydroxy-2,2,6a,6b,9,12a-hexamethyl-1,3,4,5,6,6a,6b,7,8,8a,9,10,11,12,12a,12b,13,14b-octadecahydropicene-4a (2H)-carboxylate], the IC50 [1] was greater than 10 µM, the IC50 [2] was greater than 10 µM and the IC50 [3] was 6.12 ± 1.56 µM. The IC50 [4] was greater than 10 µM, the IC50 [5] was 4.43 ± 1.34 µM and the melting point was 174 to 176 °C.
In the case of `CC1(C)CC[C@]2(C(=O)OCc3nnc(-c4ccccc4)o3)[C@H](O)C[C@]3(C)C(=CC[C@@H]4[C@@]5(C)CC[C@H](O)[C@@](C)(C=O)[C@@H]5CC[C@]43C)[C@@H]2C1` [Compound B1, (5-phenyl-1,3,4-oxadiazol-2-yl)methyl (4aR,5R,6aS,6bR,8aR,9S,10S,12aR,12bR,14bS)-9-formyl-5,10-dihydroxy-2,2,6a,6b,9,12a-hexamethyl-1,3,4,5,6,6a,6b,7,8,8a,9,10,11,12,12a,12b,13,14b-octadecahydropicene-4a (2H)-carboxylate], the IC50 [1] is reported as greater than 10 µM, the IC50 [2] is reported as greater than 10 µM and the IC50 [3] is reported as greater than 10 µM. The IC50 [4] was greater than 10 µM, the IC50 [5] was greater than 10 µM and the melting point was 130 to 132 °C.

— article PMC9490060, “Synthesis and evaluation of anticancer activity of quillaic acid derivatives: A cell cycle arrest and apoptosis inducer through NF-κB and MAPK pathways” (Frontiers in Chemistry, 2022)
